pEC50: −log10 of the molar value.
How the values were obtained:
S1P1 receptor = S1P1 receptor (Homo sapiens, UniProt P21453); assay: 35S-GTPγS binding, membranes from CHO cells expressing S1P1; assay type: biochemical; conditions: CHO cell membranes expressing S1P1
Method in brief: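 Membranes (1–10 μg) from CHO cells expressing the receptor were incubated with compound in 20 mM HEPES pH 7.4, 10 mM MgCl2, 140 mM NaCl, 1.7 μM GDP, saponin and 0.2% BSA. [35S]GTPγS (added at 1.5 nM) was then bound for 60 min at 30 °C. Membrane-bound radioactivity, averaged over triplicates, is expressed relative to S1P activation (n=2).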

S1P3 receptor = S1P3 receptor (Homo sapiens, UniProt Q99500); assay: 35S-GTPγS binding, membranes from CHO cells expressing S1P3; assay type: biochemical; conditions: CHO cell membranes expressing S1P3
Chain of S1P3 receptor (Q99500 whole entry): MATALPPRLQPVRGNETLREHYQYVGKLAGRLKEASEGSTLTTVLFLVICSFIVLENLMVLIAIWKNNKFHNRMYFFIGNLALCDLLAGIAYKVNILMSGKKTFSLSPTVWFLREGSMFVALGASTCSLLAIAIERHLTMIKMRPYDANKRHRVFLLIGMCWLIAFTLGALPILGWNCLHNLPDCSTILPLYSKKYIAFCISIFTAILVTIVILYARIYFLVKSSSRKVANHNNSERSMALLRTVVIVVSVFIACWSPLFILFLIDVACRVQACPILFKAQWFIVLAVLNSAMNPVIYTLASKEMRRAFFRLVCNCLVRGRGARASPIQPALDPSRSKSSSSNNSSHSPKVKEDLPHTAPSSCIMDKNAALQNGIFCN
Procedure: Receptor binding assay: Membranes were prepared from CHO cells expressing S1P1 or S1P3 for use in ligand and 35S-GTPTS binding studies. Cells were suspended in 50 mM TRIS, pH 7.4, 2 mM EDTA, 250 mM Sucrose (buffer A) and 1× Complete protease inhibitor cocktail (Roche), and disrupted at 4° C. by nitrogen decompression using a cell disruption bomb (Parr Instrument). Following centrifugation at 1000 RPM for 10 min at 4° C., the supernatant was suspended in buffer A and centrifuged again at 19000 RPM for 60 min at 4° C. The pellet was then suspended in 10 mM HEPES, pH 7.4, 1 mM EDTA, 250 mM Sucrose (Buffer B), and 1× Complete EDTA-free protease inhibitor cocktail and homogenized using a potter. Membranes were flash frozen in liquid nitrogen and stored at −80° C. [33P]sphingosine 1-phosphate (3000 Ci/mmol; American Radiolabeled Chemicals, Inc.) was added to test compounds in DMSO. Membranes and WGA SPA beads (GE Healthcare) were added to give a final volume of 100 μl in 96-well plates with assay concentrations of […] [33P]sphingosine 1-phosphate (respectively for S1P1 or S1P3), 50 mM HEPES, pH 7.5, 5 mM MgCl2, 100 mM NaCl, 0.4% fatty acid-free BSA, 1-5 μg/well of proteins and 100 μg/well of WGA SPA beads. Binding was performed for 60 min at room temperature on a shaker and bound radioactivity was measured on a PerkinElmer 1450 MicroBeta counter. Specific binding was calculated by subtracting remaining radioactivity in the presence of 1000-fold excess of unlabeled S1P. Binding data were analyzed using the GraphPad Prism program.
Measurements of ^35S-GTPγS Binding: Membranes (1 to 10 μg protein) prepared as described above, were incubated in 96-well Scintiplates (PerkinElmer) with test compounds diluted in DMSO, in 180 μl of 20 mM HEPES, pH 7.4, 10 mM MgCl2, 2 μg/well Saponin, 0.2% fatty acid free BSA (Assay buffer), 140 mM NaCl and 1.7 μM GDP. The assay was initiated with the addition of 20 μl of 1.5 nM [35S]-GTPγS (1100 Ci/mmol; GE Healthcare) in assay buffer. After 60 min incubation at 30° C. on a shaker, plates were centrifuged for 10 min at 2000 RPM. Supernatant was discarded and membrane bound radioactivity was measured on a PerkinElmer 1450 MicroBeta counter. Triplicate samples were averaged and expressed as response relative to S1P activation in absence of compound (n=2).

Chain of S1P1 receptor (P21453 whole entry): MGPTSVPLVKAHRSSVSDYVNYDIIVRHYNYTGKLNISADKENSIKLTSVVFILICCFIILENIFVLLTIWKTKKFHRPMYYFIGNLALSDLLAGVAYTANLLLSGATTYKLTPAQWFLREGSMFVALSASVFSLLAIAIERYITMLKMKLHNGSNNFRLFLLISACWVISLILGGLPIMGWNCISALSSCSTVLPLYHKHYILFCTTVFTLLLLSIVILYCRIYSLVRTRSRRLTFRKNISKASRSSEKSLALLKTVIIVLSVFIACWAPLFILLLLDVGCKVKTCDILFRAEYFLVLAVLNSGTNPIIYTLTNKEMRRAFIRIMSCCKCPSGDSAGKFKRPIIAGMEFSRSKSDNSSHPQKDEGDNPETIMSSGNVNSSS

| pEC50 (S1P1 receptor) | pEC50 (S1P3 receptor) | Structure (SMILES) |
| --- | --- | --- |
| 6.41 | < 4.52 | COCc1c(-c2nc(-c3ccccc3)no2)nnn1-c1ccccc1F [Example 15, 5-[1-(2-Fluorophenyl)-5-(methoxymethyl)-1H-1,2,3-triazole-4-yl]-3-phenyl-1,2,4-oxadiazole] |
| 7.34 | < 4.70 | Fc1ccc(F)c(-c2noc(-c3nnn(-c4ccccc4F)c3C3CCOCC3)n2)c1 [Example 62] |
| 6.92 | < 4.70 | COc1ccccc1-c1noc(-c2nnn(-c3ccccc3F)c2-c2ccncc2)n1 [Example 40, 4-{1-(2-fluorophenyl)-4-[3-(2-methoxyphenyl)-1,2,4-oxadiazol-5-yl]-1H-1,2,3-triazol-5-yl}pyridine] |
| 6.23 | < 4.70 | COCc1c(-c2nc(-c3cccc(S(C)(=O)=O)c3)no2)nnn1-c1ccccc1F [Example 68, 5-[1-(2-fluorophenyl)-5-(methoxymethyl)-1H-1,2,3-triazol-4-yl]-3-[3-(methylsulfonyl)phenyl]-1,2,4-oxadiazole] |
